# US8343509B2, “Methods and compositions for detection of bacteria and treatment of diseases and disorders” (priority 2008, dated 2013)
# Read-outs that look alike come from different tables or passages of the source.
# Tests used:
# [1] = tested on: Escherichia coli Nissle 1917 (EcN); assay: In vitro tracer uptake into E. coli Nissle culture (gamma counter); format: cell-based; conditions: 0.925 MBq tracer, culture grown at 37° C. for 4 hours
# Protocol: An overnight culture of EcN was diluted 1:50 into 5 ml fresh LB-broth, supplemented with 0.925 MBq (25 μCi) of [^18F]-FDG or [^18F]-FEAU. The cultures were grown at 37° C. for 4 hours. The bacteria were harvested by centrifugation, washed twice with PBS and the radioactivity in the pelleted bacteria and medium was measured in a gamma counter (Packard, United Technologies, Downers Grove, Ill.).
# E. coli Nissle [2] = conditions: for tumor-to-organ ratio, heart / tumor-to-organ ratio, liver / tumor-to-organ ratio, muscle: PET
# Protocol: The in vivo uptake of [^18F]-FDG and [^18F]-FEAU by administered EcN bacteria was studied using a mouse tumor model and imaged by positron emission tomography (PET) scanning.
# At two weeks post tumor cell implantation (tumor diameter >5 mm), the EcN bacteria (4×10^6 CFU in 100 μl PBS) were administered systemically by lateral tail vein injection into the tumor bearing mice. Control mice were injected with 100 μl PBS via tail vein.
# Prior to tracer administration, [^18F]-FDG or [^18F]-FEAU, the animals were starved 12 h and kept under anesthesia between tracer injection and imaging. In the [^18F]-FDG experimental group of mice (n=6 for each time point), each animal was injected intravenously by tail vein with 9.25 MBq (250 μCi) of [^18F]-FDG at either 16 or 72 hours after administration of EcN. Control mice received 9.25 MBq (250 μCi) of [^18F]-FDG following administration of PBS. [^18F]-FDG FDG PET scanning was performed 1 h after tracer administration using a 10 minute list mode acquisition.
# In the [^18F]-FEAU experimental group of mice (n=8 for each time point), each animal was injected intravenously by tail vein with 9.25 MBq (250 μCi) of [^18F]-FEAU at either 16 or 72 hours after administration of EcN. Control mice received 9.25 MBq (250 μCi) of [^18F]-FEAU following administration of 100 μl PBS. [^18F]-FDG PET scanning was performed 2 h after tracer administration using a 10 minute list mode acquisition.
# Imaging was performed using a Focus 120 microPET™ dedicated small-animal PET scanner (Concorde Microsystems Inc, Knoxyille, Tenn.). Mice were maintained under 2% isofluorane anesthesia with an oxygen flow rate of 2 l/min during the entire scanning period. Three-dimensional (3D) list-mode data were acquired using an energy window of 350-700 keV for ^18F and 410-580 keV for ^124I, respectively and a coincidence timing window of 6 ns. […] Transverse images were reconstructed by filtered back-projection using a ramp filter with a cut-off frequency equal to the Nyquist frequency in a 128×128×94matrix comprised of 0.866×0.866×0.866-mm voxels. The image data were corrected for (a) non-uniformity of scanner response using a uniform cylinder source-based normalization, (b) dead time count losses using a singles count rate-based global correction, (c) physical decay to the time of injection, and (d) the ^124I branching ratio. There was no correction applied for attenuation, scatter or partial-volume averaging. The count rates in the reconstructed images were converted to activity concentration (% of injected dose per gram of tissue, % ID/g) using a system calibration factor (μCi/ml/cps/voxel) derived from imaging of a rat-size phantom filled with a uniform aqueous solution of ^18F.
# PET image analysis was performed using ASIPro™ software (Concorde Microsystems Inc., Knoxyille, Tenn.). For each PET scan, regions of interest (ROIs) were manually drawn over tumor, liver, skeletal muscle and heart.
# E. coli Nissle [3] = assay: [18F]-FEAU uptake by tissue sampling, tumor-to-organ radioactivity ratios; format: in vivo, mice; conditions: after EcN administration, p<0.02
# Protocol: In vivo uptake of [^18F]-FEAU was measured in a separate experiment by measurement of tumor-to-organ (liver, spleen, heart and lung) [^18F]-FEAU radioactivity ratios via tissue sampling. […] Euthanized mice were rinsed with 100% ethanol prior to tissue removal. Organs, including liver, lung, spleen and heart, were sampled and weighed before radioactivity was measured. Tumor tissue was weighed and homogenized in 1 ml PBS. Serial dilutions of the homogenized sample were plated on L-arabinose containing LB-agar plates. […] The remaining tumor suspension and organ samples were assayed for radioactivity in a gamma counter (Packard, United Technologies, Downers Grove, Ill.). [^18F]-FEAU radioactivity (% ID/g) in the samples was determined and tumor-to-organ ratios calculated. To assess the correlation between radioactivity and scintillation counter measurements, the Pearson correlation coefficient was computed.
# E. coli Nissle [4] = conditions: in the absence of bacteria
# Description: Using the data obtained in Example 2 for in vivo [^18F]-FEAU uptake, tumor radioactivity (% ID/g), corrected for background radioactivity, was plotted against the number of bacterial colony forming units per gram for each of the tumors imaged.
# E. coli Nissle [5] = assay: In vivo [124I]-FIAU PET distribution over time in 4T1 xenograft mice
# Protocol: Mice bearing 4T1 xenografts were generated as described in Example 2. Prior to intravenous administration of ^[124I]-FIAU, three mice were injected with EcN-bacteria and 3 mice with PBS (control). 37 MBq (1000 μCi) of [^124I]-FIAU was injected into each animal intravenously 72 h after bacterial injection. Potassium iodide was used to block the uptake of radioactive iodine by the thyroid. Imaging of [^124I]-FIAU uptake by PET was obtained 4, 8, 12, 24, 48 and 72 h after tracer administration with 10 minute list acquisition at the 4 h and 8 h imaging time points, 15 minute at the 12 h time point, 30 minute at 24 h time point and 60 minute at the 48 h and 72 h time points. After tracer administration and between imaging time points, the animals were allowed to awake and maintain normal husbandry.
# [6] = 4T1 tumors, without/prior to EcN injection
# [7] = tracer 16 h after EcN injection
# [8] = tracer 72 h after EcN injection
Structure (SMILES),enrichment of radioactivity within EcN-bacteria compared to the remaining LB-broth [1] [fold],enhancement of the tracer signal (tumor-to-organ ratios post-EcN vs pre-EcN) (E. coli Nissle [2]; 16 h after EcN injection) [fold],enhancement of the tracer signal (tumor-to-organ ratios post-EcN vs pre-EcN) (E. coli Nissle [2]; 72 h after EcN injection) [fold],"tumor-to-organ ratio, heart (E. coli Nissle [2]; [6])","tumor-to-organ ratio, liver (E. coli Nissle [2]; [6])","tumor-to-organ ratio, muscle (E. coli Nissle [2]; [6])","tumor-to-organ ratio, heart (E. coli Nissle [2]; [7])","tumor-to-organ ratio, liver (E. coli Nissle [2]; [7])","tumor-to-organ ratio, muscle (E. coli Nissle [2]; [7])","tumor-to-organ ratio, heart (E. coli Nissle [2]; [8])","tumor-to-organ ratio, liver (E. coli Nissle [2]; [8])","tumor-to-organ ratio, muscle (E. coli Nissle [2]; [8])","tumor to organ ratio (liver, spleen, heart, lung) by tissue sampling (E. coli Nissle [3])",uptake in tumors (E. coli Nissle [2]; in the absence of EcN injection),accumulation in 4T1 xenografts (E. coli Nissle [4]),background radioactivity in PET images (E. coli Nissle [5]; 4 and 8 h acquisition time points),"tumor/background ratios (E. coli Nissle [5]; 48 and 72 h after tracer, EcN-treated animals)",enrichment in the bacteria-treated tumors versus control tumors (E. coli Nissle [5]; tracer 72 h after bacterial injection) [fold]
"OC[C@H]1OC(O)[C@H]([18F])[C@@H](O)[C@@H]1O (stereo partly drawn) [[^18F]-FDG, 2′-[^18F]fluoro-2′deoxy-D-glucose]",120,~1.7,~1.4,0.23±0.12,1.6±0.4,3.3±0.7,0.31±0.8,2.6±0.5,5.4±1.1,0.31±0.17,2.2±0.8,4.3±1.2,–,–,–,–,–,–
"CCc1cn([C@@H]2O[C@H](CO)[C@@H](O)[C@@H]2[18F])c(=O)[nH]c1=O [[^18F]-FEAU, 2′-[^18F]fluoro-2′deoxy-1-β-D-arabinofuranosyl-5-ethyl-uracil]",6.5,~1.6,~2.1,1.4±0.3,1.4±0.3,1.7±0.4,2.1±0.6,2.0±0.7,2.6±0.8,2.9±0.8,2.4±0.8,3.0±1.3,increased significantly,much lower than that of [^18F]-FDG,near background levels,–,–,–
"O=c1[nH]c(=O)n([C@@H]2O[C@H](CO)[C@@H](O)[C@@H]2F)cc1I [[^124I]-FIAU, 5-iodo-2′-fluoro-2′deoxy-1-β-D-arabino-furanosyl-uracil]",–,–,–,–,–,–,–,–,–,–,–,–,–,–,low levels above background,very high background radioactivity,greater than 5,2.5
